From ChEMBL document CHEMBL3885861, “Open TG-GATES”

Species on record: Rattus norvegicus
Test: Open TG-GATES - Regimen: Single
Format: toxicity, organism-based, Sprague-Dawley
Set-up: regimen Single, gender Male, age 6 weeks
Conditions: in vivo, po, 100 mg/kg, route gavage, dose level Low; for APTT / Bas / Eos / Fbg / Hb / Ht / Lym / MCH / MCHC / MCV / Mono / Neu / PT / Plat / RBC / Ret / WBC: tissue Blood; for KIDNEY_L / KIDNEY_R / KIDNEY_TOTAL: tissue Kidney; for LIVER: tissue Liver; for A/G / ALP / ALT / AST / BUN / CRE / Ca / Cl / DBIL / GLC / IP / K / LDH / Na / PL / RALB / TBIL / TC / TG / TP / gamma-GTP: tissue Plasma

SMILES: CCc1cc(C(N)=S)ccn1 [ETHIONAMIDE]
- TERMINAL_BW (3 h): 224.2 g
- APTT (3 h): 16.6 s
- Bas (3 h): 0%
- Eos (3 h): 1%
- Fbg (3 h): 211.2 mg/dL
- Hb (3 h): 13.8 g/dL
- Ht (3 h): 40.6%
- Lym (3 h): 73.6%
- MCH (3 h): 21.8 pg
- MCHC (3 h): 34%
- MCV (3 h): 64 fL
- Mono (3 h): 8.4%
- Neu (3 h): 17.4%
- PT (3 h): 12.4 s
- Plat (3 h): 119.3 x10_4/uL
- RBC (3 h): 635.8 x10_4/ul
- Ret (3 h): 7.1%
- WBC (3 h): 90.5 x10_2/uL
- KIDNEY_L (3 h): 1 g
- KIDNEY_R (3 h): 1 g
- KIDNEY_TOTAL (3 h): 1.9 g
- LIVER (3 h): 10.7 g
- A/G (3 h): 1.9
- ALP (3 h): 802.2 IU/L
- ALT (3 h): 36 IU/L
- AST (3 h): 68.6 IU/L
- BUN (3 h): 15 mg/dL
- CRE (3 h): 0.7 mg/dL
- Ca (3 h): 11 mg/dL
- Cl (3 h): 103 meq/L
- DBIL (3 h): 0.012 mg/dL
- GLC (3 h): 181.6 mg/dL
- IP (3 h): 9.2 mg/dL
- K (3 h): 4.4 meq/L
- LDH (3 h): 109 IU/L
- Na (3 h): 140.6 meq/L
- PL (3 h): 128.4 mg/dL
- RALB (3 h): 3.6 g/dL
- TBIL (3 h): 0.4 mg/dL
- TC (3 h): 73 mg/dL
- TG (3 h): 58 mg/dL
- TP (3 h): 5.5 g/dL
- gamma-GTP (3 h): 1.6 IU/L
- TERMINAL_BW (6 h): 229.4 g
- APTT (6 h): 17.1 s
- Bas (6 h): 0%
- Eos (6 h): 0.8%
- Fbg (6 h): 208.8 mg/dL
- Hb (6 h): 14.2 g/dL
- Ht (6 h): 42.1%
- Lym (6 h): 77.6%
- MCH (6 h): 22.1 pg
- MCHC (6 h): 33.7%
- MCV (6 h): 65.7 fL
- Mono (6 h): 8%
- Neu (6 h): 14.2%
- PT (6 h): 13.4 s
- Plat (6 h): 114.8 x10_4/uL
- RBC (6 h): 640.6 x10_4/ul
- Ret (6 h): 7.5%
- WBC (6 h): 84 x10_2/uL
- KIDNEY_L (6 h): 1 g
- KIDNEY_R (6 h): 1 g
- KIDNEY_TOTAL (6 h): 2 g
- LIVER (6 h): 10.8 g
- A/G (6 h): 1.8
- ALP (6 h): 908.4 IU/L
- ALT (6 h): 31.6 IU/L
- AST (6 h): 77.4 IU/L
- BUN (6 h): 15.6 mg/dL
- CRE (6 h): 0.5 mg/dL
- Ca (6 h): 11 mg/dL
- Cl (6 h): 105.4 meq/L
- DBIL (6 h): 0.004 mg/dL
- GLC (6 h): 187.4 mg/dL
- IP (6 h): 9.8 mg/dL
- K (6 h): 4.5 meq/L
- LDH (6 h): 123.4 IU/L
- Na (6 h): 140.4 meq/L
- PL (6 h): 126 mg/dL
- RALB (6 h): 3.5 g/dL
- TBIL (6 h): 0.4 mg/dL
- TC (6 h): 69.6 mg/dL
- TG (6 h): 54.4 mg/dL
- TP (6 h): 5.5 g/dL
- gamma-GTP (6 h): 1 IU/L
- TERMINAL_BW (9 h): 222.6 g
- APTT (9 h): 18.1 s
- Bas (9 h): 0%
- Eos (9 h): 1.4%
- Fbg (9 h): 210.2 mg/dL
- Hb (9 h): 14.2 g/dL
- Ht (9 h): 42.2%
- Lym (9 h): 70%
- MCH (9 h): 21.7 pg
- MCHC (9 h): 33.7%
- MCV (9 h): 64.4 fL
- Mono (9 h): 8.6%
- Neu (9 h): 20%
- PT (9 h): 14.1 s
- Plat (9 h): 116.8 x10_4/uL
- RBC (9 h): 655.2 x10_4/ul
- Ret (9 h): 8.3%
- WBC (9 h): 79.2 x10_2/uL
- KIDNEY_L (9 h): 1 g
- KIDNEY_R (9 h): 1 g
- KIDNEY_TOTAL (9 h): 2 g
- LIVER (9 h): 9.8 g
- A/G (9 h): 2
- ALP (9 h): 756.6 IU/L
- ALT (9 h): 33.8 IU/L
- AST (9 h): 73.4 IU/L
- BUN (9 h): 15 mg/dL
- CRE (9 h): 0.6 mg/dL
- Ca (9 h): 10.7 mg/dL
- Cl (9 h): 105.2 meq/L
- DBIL (9 h): 0.018 mg/dL
- GLC (9 h): 205.4 mg/dL
- IP (9 h): 10.7 mg/dL
- K (9 h): 4.5 meq/L
- LDH (9 h): 95.6 IU/L
- Na (9 h): 142 meq/L
- PL (9 h): 100.4 mg/dL
- RALB (9 h): 3.5 g/dL
- TBIL (9 h): 0.4 mg/dL
- TC (9 h): 53.4 mg/dL
- TG (9 h): 28.4 mg/dL
- TP (9 h): 5.3 g/dL
- gamma-GTP (9 h): 1.4 IU/L
- TERMINAL_BW (24 h): 231 g
- APTT (24 h): 16.3 s
- Bas (24 h): 0%
- Eos (24 h): 1.2%
- Fbg (24 h): 214.8 mg/dL
- Hb (24 h): 14.3 g/dL
- Ht (24 h): 42.3%
- Lym (24 h): 62.4%
- MCH (24 h): 21.6 pg
- MCHC (24 h): 33.8%
- MCV (24 h): 63.8 fL
- Mono (24 h): 12.8%
- Neu (24 h): 23.8%
- PT (24 h): 12.2 s
- Plat (24 h): 117.2 x10_4/uL
- RBC (24 h): 663 x10_4/ul
- Ret (24 h): 8%
- WBC (24 h): 110 x10_2/uL
- KIDNEY_L (24 h): 1.1 g
- KIDNEY_R (24 h): 1.1 g
- KIDNEY_TOTAL (24 h): 2.1 g
- LIVER (24 h): 11.7 g
- A/G (24 h): 1.9
- ALP (24 h): 884.8 IU/L
- ALT (24 h): 38.6 IU/L
- AST (24 h): 80.4 IU/L
- BUN (24 h): 16.4 mg/dL
- CRE (24 h): 0.6 mg/dL
- Ca (24 h): 10.9 mg/dL
- Cl (24 h): 104.6 meq/L
- DBIL (24 h): 0.026 mg/dL
- GLC (24 h): 193.2 mg/dL
- IP (24 h): 7.8 mg/dL
- K (24 h): 4.6 meq/L
- LDH (24 h): 90.4 IU/L
- Na (24 h): 141.4 meq/L
- PL (24 h): 136 mg/dL
- RALB (24 h): 3.6 g/dL
- TBIL (24 h): 0.3 mg/dL
- TC (24 h): 67.6 mg/dL
- TG (24 h): 103.8 mg/dL
- TP (24 h): 5.5 g/dL
- gamma-GTP (24 h): 1.8 IU/L
